Measured values published in patent US20240417387A1, “SULFONYLPIPERAZINYL COMPOUNDS FOR TREATMENT OF BACTERIAL INFECTIONS” (Hoffmann-La Roche Inc., priority 2021, published 2024).
Converted amounts (≈) assume the structure as drawn.

Legend:
[1] = Human microsome stability assay; format: in vitro ADME
Protocol: The human microsomal stability assay is used for early assessment of metabolic stability of a test compound in human liver microsomes.
Human liver microsomes (Cat.NO.: 452117, Corning, USA) were preincubated with test compound for 10 minutes at 37° C. in 100 mM potassium phosphate buffer, pH 7.4. The reactions were initiated by adding NADPH regenerating system. The final incubation mixtures contained 1 µM test compound, 0.5 mg/mL liver microsomal protein, 1 mM MgCl2, 1 mM NADP, 1 unit/mL isocitric dehydrogenase and 6 mM isocitric acid in 100 mM potassium phosphate buffer, pH 7.4. After incubation times of 0, 3, 6, 9, 15 and 30 minutes at 37° C., 300 μL of cold acetonitrile (including internal standard) was added to 100 μL incubation mixture to terminate the reaction. Following precipitation and centrifugation, the amount of compound remaining in the samples were determined by LC-MS/MS. Controls of no NADPH regenerating system at zero and 30 minutes were also prepared and analyzed. […] (Human microsome clearance: <7 mL/min/kg: low; 7-16.2 mL/min/kg: medium; >16.2 mL/min/kg: high)

[2] = test system: Klebsiella pneumonia ATCC 43816; assay: Minimal Inhibitory Concentration (MIC) broth dilution assay, K. pneumonia ATCC 43816; format: cell-based; conditions: CAMHB; for MIC: Klebsiella pneumoniae, ATCC43816, 20 hours at 35° C., read-out: MIC K. p ATCC 43816
Protocol: (§1) The antibacterial activity of molecules was evaluated against the commonly used quality control strain Escherichia coli BW 25113, Escherichia coli ATCC 25922 and the rifampin-resistant mutant strain Klebsiella pneumonia ATCC 43816. Escherichia co/i BW 25113 was obtained from the Coli Genetic Stock Center (CGSC) (strain 7636). Both Escherichia coli ATCC 25922 and Klebsiella pneumonia ATCC 43816 were originally derived from human clinical samples and are available from ATCC (American Type Culture Collection). The in vitro potency of compounds to inhibit Escherichia coli (BW 25113, ATCC 25922) and Klebsiella pneumonia (ATCC 43816) growth was assessed by the MIC (Minimal Inhibitory Concentration) broth dilution method. Specifically compound dilutions were prepared from 10 mM DMSO stock solutions as follows: i) serial 2-fold dilution in 20 μL DMSO were prepared in a master plate (Greiner, Cat No: 651201), ii) 180 μL sterile distilled water was added to each aliquot and iii) 10 μL diluted compounds were transferred into a new assay plate (Costar, 3599).
(§2) Vials of each test microorganisms were maintained frozen in the vapor phase of a liquid nitrogen freezer. Single-use frozen vials of the three strains Escherichia coli BW 25113, Escherichia coli ATCC 25922 (KWTKSTTK, 0335K) and Klebsiella pneumonia ATCC 43816, with predetermined CFU/mL, were taken out from the freezer, thawed at room temperature, and diluted in Cation-Adjusted Mueller Hinton Broth (CAMVIHB) to achieve a final inoculum of 5×10^5 CFU/mL. 90 μL bacteria containing broth was dispensed to the assay plate containing the pre-dispensed compound dilutions and mixed by pipetting 5 times.
(§3) Then the assay plates were incubated for 20 hours at 35° C. in ambient air. Following incubation, the MIC […], the lowest concentration of drug that inhibits visible growth of the microorganism was read with the help of a magnification mirror and recorded.

[3] = test system: Escherichia coli BW 25113; assay: Minimal Inhibitory Concentration (MIC) broth dilution assay, E. coli BW 25113; format: cell-based; conditions: CAMHB; for MIC: Escherichia coli, BW25113, 20 hours at 35° C., read-out: MIC E. coli K-12 BW 25113
Protocol: as §1, §2, §3

[4] = test system: Escherichia coli ATCC 25922; assay: Minimal Inhibitory Concentration (MIC) broth dilution assay, E. coli ATCC 25922; format: cell-based; conditions: for MIC: Escherichia coli, ATCC25922, 20 h, read-out: MIC E. coli ATCC 25922
Protocol: as §1, §2, §3

[5] = human liver microsomes 0.5 mg/mL, 37° C., pH 7.4, NADPH regenerating system

Row | Compound | Clearance of Human microsome [1, 5] | MIC [2] | MIC [3] | MIC [4] | Clearance of Human microsome ([1]; human, microsomes, pH 7.4) | MIC K. p ATCC 43816 ([2]; 20 hours at 35° C.) | MIC E. coli K-12 BW 25113 ([3]; 20 hours at 35° C.) | MIC E. coli K-12 ATCC 25922 ([4]; broth dilution, 20 hours at 35° C., CAMHB)
1 | C[N+](CCN)(CCN)CCCNC(=O)[C@H]1CC[C@H](C(F)(F)c2cc(Cl)nc(N3CCN(S(=O)(=O)c4ccc(N5C[C@H](N)CC5=O)cc4)CC3)c2)CC1 [Example 065, Trans-bis(2-aminoethyl)-[3-[[4-[[2-[4-[4-[(4R)-4-amino-2-oxo-pyrrolidin-1-yl]phenyl]sulfonylpiperazin-1-yl]-6-chloro-4-pyridyl]-difluoro-methyl]cyclohexanecarbonyl]amino]propyl]-methyl-ammonium] | 8.21 mL/min/kg | 0.66 µg/mL | 0.66 µg/mL | 0.66 µg/mL |  |  |  | 
2 | N[C@@H]1CC(=O)N(c2ccc(S(=O)(=O)N3CCN(c4cc(C(F)(F)[C@H]5CC[C@H](C(=O)N[C@H]6CCC(N7C[C@H](N)C[C@H](N)C7)C6)CC5)cc(Cl)n4)CC3)cc2)C1 (stereo partly drawn) [Example 081, Trans-4-[[2-chloro-6-[4-[4-[(4R)-4-amino-2-oxo-pyrrolidin-1-yl]phenyl]sulfonylpiperazin-1-yl]-4-pyridyl]-difluoro-methyl]-N-[(1S)-3-[cis-3,5-diamino-1-piperidyl]cyclopentyl]cyclohexanecarboxamide] | 6.71 mL/min/kg | 0.65 µg/mL (≈ 0.82 µM) | 0.65 µg/mL (≈ 0.82 µM) | 0.65 µg/mL (≈ 0.82 µM) |  |  |  | 
3 | C[C@H]1CNC[C@@H]1NC(=O)[C@H]1CC[C@H](C(F)(F)c2cc(Cl)nc(N3CCN(S(=O)(=O)c4ccc(N5C[C@H](N)CC5=O)cc4)CC3)c2)CC1 [Example 068, Trans-4-[[2-[4-[4-[(4R)-4-amino-2-oxo-pyrrolidin-1-yl]phenyl]sulfonylpiperazin-1-y1]-6-chloro-4-pyridy1]-difluoro-methyl]-N-[(3R,4S)-4-methylpyrrolidin-3-yl]cyclohexanecarboxamide] | 9.49 mL/min/kg | 0.32 µg/mL (≈ 0.461 µM) | 0.32 µg/mL (≈ 0.461 µM) | 0.32 µg/mL (≈ 0.461 µM) |  |  |  | 
4 | NC1CC(=O)N(c2ccc(S(=O)(=O)N3CCN(c4cc(C(F)(F)c5ccc(C(=O)NCCCO)cc5)cc(Cl)n4)CC3)cc2)C1 (centres unmarked) [Example 015, 4-[[2-[4-[4-(4-amino-2-oxo-pyrrolidin-1-yl)phenyl]sulfonylpiperazin-1-yl]-6-chloro-4-pyridyl]-difluoro-methyl]-N-(3-hydroxypropyl)benzamide] | 9.58 mL/min/kg | 0.7 µg/mL (≈ 1.06 µM) | 0.7 µg/mL (≈ 1.06 µM) | 0.7 µg/mL (≈ 1.06 µM) |  |  |  | 
5 | NCCCNC(=O)C1C[C@@H]2CC[C@H]1CC2C(F)(F)c1cc(Cl)nc(N2CCN(S(=O)(=O)c3ccc(N4C[C@H](N)CC4=O)cc3)CC2)c1 (some centres unmarked) [Example 053] | 6.15 mL/min/kg | 0.54 µg/mL (≈ 0.778 µM) | 0.55 µg/mL (≈ 0.792 µM) | 0.57 µg/mL (≈ 0.821 µM) |  |  |  | 
6 | CN[C@@H]1CC(=O)N(c2ccc(S(=O)(=O)N3CCN(c4cc(C(F)(F)[C@H]5CC[C@H](C(=O)NCCCN)CC5)cc(Cl)n4)CC3)cc2)C1 [Example 069, Trans-N-(3-aminopropyl)-4-[[2-chloro-6-[4-[4-[(4R)-4-(methylamino)-2-oxo-pyrrolidin-1-yl]phenyl]sulfonylpiperazin-1-y1]-4-pyridyl]-difluoro-methyl]cyclohexanecarboxamide] | 10.85 mL/min/kg | 0.56 µg/mL (≈ 0.821 µM) | 0.56 µg/mL (≈ 0.821 µM) | 0.56 µg/mL (≈ 0.821 µM) |  |  |  | 
7 | NC[C@@H]1CN(C(=O)[C@H]2CC[C@H](C(F)(F)c3cc(Cl)nc(N4CCN(S(=O)(=O)c5ccc(N6C[C@H](N)CC6=O)cc5)CC4)c3)CC2)C[C@@H]1CN [Example 067, Trans-(4R)-4-amino-1-[4-[4-[4-[[4-[cis-3,4-bis(aminomethyl)pyrrolidine-1-carbonyl]cyclohexyl]-difluoro-methyl]-6-chloro-2-pyridyl]piperazin-1-yl]sulfonylphenyl]pyrrolidin-2-one] | 6.15 mL/min/kg | 0.57 µg/mL (≈ 0.788 µM) | 0.59 µg/mL (≈ 0.816 µM) | 0.3 µg/mL (≈ 0.415 µM) |  |  |  | 
8 | NCCCNC(=O)c1ccc(C(F)(F)c2cc(Cl)nc(N3CCN(S(=O)(=O)c4ccc(N5CC(N)CC5=O)cc4)CC3)c2)cc1 (centres unmarked) [Example 016, 4-[[2-[4-[4-(4-amino-2-oxo-pyrrolidin-1-yl)phenyl]sulfonylpiperazin-1-yl]-6-chloro-4-pyridyl]-difluoro-methyl]-N-(3-aminopropyl)benzamide] | 8.63 mL/min/kg | 0.35 µg/mL (≈ 0.529 µM) | 0.35 µg/mL (≈ 0.529 µM) | 0.35 µg/mL (≈ 0.529 µM) |  |  |  | 
9 | NC[C@@H]1CN([C@@H]2CC[C@H](NC(=O)[C@H]3CC[C@H](C(F)(F)c4cc(Cl)nc(N5CCN(S(=O)(=O)c6ccc(N7C[C@H](N)CC7=O)cc6)CC5)c4)CC3)C2)C[C@@H]1CN [Example 080, Trans-4-[[2-[4-[4-[(4R)-4-amino-2-oxo-pyrrolidin-1-yl]phenyl]sulfonylpiperazin-1-yl]-6-chloro-4-pyridyl]-difluoro-methyl]-N-[(1S,3R)-3-[cis-3,4-bis(aminomethyl)pyrrolidin-1-yl]cyclopentyl]cyclohexanecarboxamide] |  | 0.99 µg/mL (≈ 1.23 µM) | 0.33 µg/mL (≈ 0.409 µM) | 0.33 µg/mL (≈ 0.409 µM) |  |  |  | 
10 | NCCCN(CCCN)C(=O)C12CCC(C(F)(F)c3cc(Cl)nc(N4CCN(S(=O)(=O)c5ccc(N6C[C@H](N)CC6=O)cc5)CC4)c3)(CC1)C2 [Example 046] | 6.15 mL/min/kg | 1.2 µg/mL (≈ 1.63 µM) | 2.4 µg/mL (≈ 3.26 µM) | 1.2 µg/mL (≈ 1.63 µM) |  |  |  | 
11 | Trans-N-[(1R,3S)-3-aminocyclopentyl]-4-[2-[4-[4-[(4R)-4-amino-2-oxo-pyrrolidin-1-yl]phenyl]sulfonylpiperazin-1-yl]-6-chloro-4-pyridyl]-difluoro-methyl]cyclohexanecarboxamide [Example 066] |  |  |  |  | 6.15 mL/min/kg | 0.59 µg/mL | 1.3 µg/mL | 0.63 µg/mL
12 | NCCNC(=O)[C@H]1CC[C@H](C(F)(F)c2cc(Cl)nc(N3CCN(S(=O)(=O)c4ccc(N5C[C@H](N)CC5=O)cc4)CC3)c2)CC1 [Example 041, Trans-N-(2-aminoethyl)-4-[[2-chloro-6-[4-[4-[(4R)-4-amino-2-oxo-pyrrolidin-1-yl]phenyl]sulfonylpiperazin-1-yl]-4-pyridyl]-difluoro-methyl]cyclohexanecarboxamide] | 9.73 mL/min/kg | 0.54 µg/mL (≈ 0.825 µM) | 0.54 µg/mL (≈ 0.825 µM) | 0.54 µg/mL (≈ 0.825 µM) |  |  |  | 
13 | NCC(O)CNC(=O)c1ccc(C(F)(F)c2cc(Cl)nc(N3CCN(S(=O)(=O)c4ccc(N5CC(N)CC5=O)cc4)CC3)c2)cc1 (centres unmarked) [Example 018, N-(3-amino-2-hydroxy-propyl)-4-[[2-[4-[4-(4-amino-2-oxo-pyrrolidin-1-yl)phenyl]sulfonylpiperazin-1-yl]-6-chloro-4-pyridyl]-difluoro-methyl]benzamide] | 6.15 mL/min/kg | 0.62 µg/mL (≈ 0.914 µM) | 0.62 µg/mL (≈ 0.914 µM) | 0.62 µg/mL (≈ 0.914 µM) |  |  |  | 
14 | NCCNC(=O)c1ccc(C(F)(F)c2cc(Cl)nc(N3CCN(S(=O)(=O)c4ccc(N5CC(N)CC5=O)cc4)CC3)c2)cc1 (centres unmarked) [Example 017, N-(2-aminoethyl)-4-[[2-[4-[4-(4-amino-2-oxo-pyrrolidin-1-yl)phenyl]sulfonylpiperazin-1-yl]-6-chloro-4-pyridyl]-difluoro-methyl]benzamide] | 9.36 mL/min/kg | 0.45 µg/mL (≈ 0.694 µM) | 0.35 µg/mL (≈ 0.54 µM) | 0.3 µg/mL (≈ 0.463 µM) |  |  |  | 
15 | NCC(O)CNC(=O)c1ccc(C(F)(F)c2cc(Cl)nc(N3CCN(S(=O)(=O)c4ccc(N5C[C@H](N)CC5=O)cc4)CC3)c2)cc1 (stereo partly drawn) [Example 019, N-(3-amino-2-hydroxy-propyl)-4-[[2-chloro-6-[4-[4-[(4R)-4-amino-2-oxo-pyrrolidin-1-yl]phenyl]sulfonylpiperazin-1-yl]-4-pyridyl]-difluoro-methyl]benzamide] | 10.63 mL/min/kg | 0.35 µg/mL (≈ 0.516 µM) | 0.35 µg/mL (≈ 0.516 µM) | 0.71 µg/mL (≈ 1.05 µM) |  |  |  | 
